Here are results for seven compounds from patent US10294234B2, “HIV inhibitor compounds” (priority 2017, dated 2019).

The nature of data set [1]: 3H Human Predicted Clearance Assay (tritiated analogs). It counts as in vitro ADME. The arrangement: unit not given here. How it is done: 3H Human Predicted Clearance Assay:
For certain compounds, tritiated analogs (H^3) were prepared to further determined their human predicted clearance with increased resolution. Those studies were performed as described above using the tritiated analogs. Data from those compounds is found in Table 2 below and reported in FIG. 1 (note ATV and DRV were not tritiated).

The method of data set [2] in brief: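 Each compound (1 uM) is incubated in duplicate with 0.5 mg/mL liver microsomal protein from dog, rat or human plus NADPH-regenerating system. Samples taken at 2, 12, 25, 45 and 65 minutes are deproteinised and quantified by LC/MS/MS. Half-life gives Clint.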
Data set [3] has as its system HIV-1 (IIIB) in MT-4 cells. As to the kind of experiment: MT-4 HIV assay. The format is cell-based. The note with it: Human immunodeficiency virus 1, MT4, 120 h. Summed up: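 Antiviral activity was read by Cell Titer Glo after a 5-day, 37 °C culture of MT-4 cells pre-infected with a 1:250 dilution of HIV-1 (IIIB). Compounds were tested as threefold dilution series in complete RPMI. Controls were no drug, mock infection and 5 uM AZT.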

Data set [4] can be described thus: in vivo. How it is done:
Pharmacokinetic Profiling Dog PK
Each dosing group consisted of three non-naïve male beagle dogs. At dosing, the animals weighed between 9 to 12 kg. The animals were fasted overnight prior to dose administration and up to four hours after dosing. The test article was administered by intravenous infusion over 30-minutes. The rate of infusion was adjusted according to the body weight of each animal to deliver a dose of 0.5 or 1.0 mg/kg. For the oral dosing group, the test article was administered by oral gavage at a dose volume of 2 mL/kg.
Serial venous blood samples (approximately 1.0 mL each) were collected at predose and 0.25, 0.48, 0.58, 0.75, 1.0, 1.5, 2, 4, 8, 12 and 24 hours post dose from each animal for the IV dosing group; blood samples were collected at predose, 0.25, 0.50, 1, 2 4, 6, 8,12 and 24 hours post dose for the oral dosing group. The blood samples were collected into Vacutainer™ tubes containing EDTA-K2 as the anti-coagulant and were immediately placed on wet ice pending centrifugation for plasma. An LC/MS/MS method was used to measure the concentration of test compound in plasma. Non-compartmental pharmacokinetic analysis was performed on the plasma concentration-time data. VSS=apparent volume of distribution, t1/2=half life, F=oral bioavailability.

The nature of data set [5]: in vivo. The note with it: rat, in vivo; for Vd / RAT PO F: male, SD; for Vd / RAT IV CL / RAT IV T1/2: iv; for RAT PO F: 2.5 mg/kg. The procedure: Each dosing group consisted of 3 male naïve SD Rats. At dosing, the animals weighed between 0.27 to 0.32 kg. The animals were fasted overnight prior to dose administration. The test article was administered by intravenous infusion over 30 min. The rate of infusion was adjusted according to the body weight of each animal to deliver a dose of 0.5 or 1.0 mg/kg. For the oral dosing group, the test article was administered to animals by oral gavage administration. Serial venous blood samples (approximately 0.30 mL each) were taken at predose and 0.25, 0.48, 0.58, 0.75, 1.5, 3, 6, 8, 12 and 24 hours post dose for the IV dosing group animals. Blood samples were taken at predose, 0.25, 0.50, 1, 2, 4, 6, 8, 12 and 24 hours post dose for the oral group animals. The blood samples were collected into Vacutainer™ tubes containing EDTA-K2 as the anti-coagulant and were immediately placed on wet ice pending centrifugation for plasma. An LC/MS/MS method was used to measure the concentration of test compound in plasma. Non-compartmental pharmacokinetic analysis was performed on the plasma concentration-time data.

[6] abbreviates: HIV-1 (IIIB), MT-4 cells, 5 days, Cell Titer Glo, read-out: EC50.
Setting [7] is: tritiated analogs, human liver microsomes.
[8] abbreviates: human liver microsomes 0.5 mg/mL, 1 uM compound, NADPH.

Each structure is given as a SMILES string. Like-named read-outs stand apart in the source and are kept apart here.

A word on the EC50: it is the midpoint of the concentration-response curve. In the case of `COC(=O)N[C@H](C(=O)NN(Cc1c(F)cc(-c2ccn(C(F)F)n2)cc1F)C[C@H](O)[C@H](Cc1ccc(C#Cc2cnc(N3CC4CCC(C3)N4C3COC3)nc2)cc1)NC(=O)[C@@H](NC(=O)OC)C(C)(C)C(F)(F)F)C(C)(C)C` [Example 23, Methyl ((5S,8S,9S,14S)-11-(4-(1-(difluoromethyl)-1H-pyrazol-3-yl)-2,6-difluorobenzyl)-9-hydroxy-15,15-dimethyl-8-(4-((2-(8-(oxetan-3-yl)-3,8-diazabicyclo[3.2.1]octan-3-yl)pyrimidin-5-yl)ethynyl)benzyl)-3,6,13-trioxo-5-(1,1,1-trifluoro-2-methylpropan-2-yl)-2-oxa-4,7,11,12-tetraazahexadecan-14-yl)carbamate], the “3H Human Predicted Cl.” value in data set [1] (human, 1 uM) was 0.07. Besides, the “Dog. Pred. Cl.” value in data set [2] (dog, microsomes) was found to be 0.21 L/H/kg. In addition, the “Human Pred Cl.” value in data set [2] (human, microsomes) was below 0.11 L/H/kg. Moreover, the “Rat. Pred. Cl.” value in data set [2] (rat, microsomes) amounted to 0.22 L/H/kg. Further, the EC50 in data set [3] (setting [6]) was determined as 4.82 nM.

Turning to `COC(=O)N[C@H](C(=O)N[C@@H](Cc1ccc(C#Cc2ccc(N3CCN4CCOC[C@H]4C3)nc2)cc1)[C@@H](O)CN(Cc1c(F)cc(-c2ccn(C(F)F)n2)cc1F)NC(=O)[C@@H](NC(=O)OC)C(C)(C)C(F)(F)F)C(C)(C)C(F)(F)F` [Example 51, methyl ((5S,8S,9S,14S)-11-(4-(1-(difluoromethyl)-1H-pyrazol-3-yl)-2,6-difluorobenzyl)-16,16,16-trifluoro-8-(4-((6-((R)-hexahydropyrazino[2,1-c][1,4]oxazin-8(1H)-yl)pyridin-3-yl)ethynyl)benzyl)-9-hydroxy-15,15-dimethyl-3,6,13-trioxo-5-(1,1,1-trifluoro-2-methylpropan-2-yl)-2-oxa-4,7,11,12-tetraazahexadecan-14-yl)carbamate], the “3H Human Predicted Cl.” value in data set [1] (setting [7]) is on record as 0.11. Further, the “Human Pred Cl.” value in data set [2] (setting [8]) was below 0.11 L/H/kg. The compound also displayed an EC50 in data set [3] of 2.8 nM.

In general, Vd refers to the apparent volume that relates the amount in the body to the concentration in plasma or blood. As to `COC(=O)N[C@H](C(=O)N[C@@H](Cc1ccc(C#Cc2ccc(N3CC4CCC(C3)N4C3COC3)nc2)cc1)[C@@H](O)CN(Cc1ccc(-c2cnn(C(F)F)c2)cc1)NC(=O)[C@@H](NC(=O)OC)C(C)(C)C(F)(F)F)C(C)(C)C(F)(F)F` [Example 63, Methyl ((5S,8S,9S,14S)-11-(4-(1-(difluoromethyl)-1H-pyrazol-4-yl)benzyl)-16,16,16-trifluoro-9-hydroxy-15,15-dimethyl-8-(4-((6-(8-(oxetan-3-yl)-3,8-diazabicyclo[3.2.1]octan-3-yl)pyridin-3-yl)ethynyl)benzyl)-3,6,13-trioxo-5-(1,1,1-trifluoro-2-methylpropan-2-yl)-2-oxa-4,7,11,12-tetraazahexadecan-14-yl)carbamate], the “Dog. Pred. Cl.” value in data set [2] (dog, microsomes) was 0.86 L/H/kg. For the same compound, the “Human Pred Cl.” value in data set [2] (human, microsomes) is listed as below 0.11 L/H/kg. Also, the “Rat. Pred. Cl.” value in data set [2] (rat, microsomes) worked out at 0.2 L/H/kg. In addition, the EC50 in data set [3] (setting [6]) came out at 4.25 nM. Also, the “DOG IV CL” value in the data set “in vivo [4]” (dog, in vivo, iv) stood at 4.67 mL/min/kg. Moreover, the “DOG IV T1/2” value in the data set “in vivo [4]” (male beagle dogs, IV infusion over 30 minutes, 0.5 or 1.0 mg/kg) came out at 8.16 h. Also, in “in vivo [4]” (male, beagle, dog, in vivo, iv), the Vd worked out at 2.4 L/kg. In the data set “in vivo [5]”, the volume of distribution (Vd) amounted to 5.46 L/kg, the “RAT PO F” value is given as 19%, the “RAT IV CL” value amounted to 7 mL/min/kg and the “RAT IV T1/2” value was 11.9 h.

In the case of `COC(=O)N[C@H](C(=O)N[C@@H](Cc1ccc(C#Cc2ccc(N3CC4CCC(C3)N4C3COC3)nc2)cc1)[C@@H](O)CN(Cc1c(F)cc(-c2nnc(C3CC3)s2)cc1F)NC(=O)[C@@H](NC(=O)OC)C(C)(C)C(F)(F)F)C(C)(C)C(F)(F)F` [Example 75, Methyl ((5S,8S,9S,14S)-11-(4-(5-cyclopropyl-1,3,4-thiadiazol-2-yl)-2,6-difluorobenzyl)-16,16,16-trifluoro-9-hydroxy-15,15-dimethyl-8-(4-((6-(8-(oxetan-3-yl)-3,8-diazabicyclo[3.2.1]octan-3-yl)pyridin-3-yl)ethynyl)benzyl)-3,6,13-trioxo-5-(1,1,1-trifluoro-2-methylpropan-2-yl)-2-oxa-4,7,11,12-tetraazahexadecan-14-yl)carbamate], the “3H Human Predicted Cl.” value in data set [1] (human, 1 uM) is reported as 0.11. The “Human Pred Cl.” value in data set [2] (human, microsomes) is reported as below 0.11 L/H/kg. For the same compound, the “Rat. Pred. Cl.” value in data set [2] (rat, microsomes) was 0.21 L/H/kg. For the same compound, in data set [3] (setting [6]), the EC50 is 3.41 nM.

Consider `COC(=O)N[C@H](C(=O)N[C@@H](Cc1ccc(C#Cc2cnc(N3CCN(C4COC4)CC3)nc2)cc1)[C@@H](O)CN(Cc1c(F)cc(-c2ncccn2)cc1F)NC(=O)[C@@H](NC(=O)OC)C(C)(C)C(F)(F)F)C(C)(C)C(F)(F)F` [Example 88, Methyl ((5S,8S,9S,14S)-11-(2,6-difluoro-4-(pyrimidin-2-yl)benzyl)-16,16,16-trifluoro-9-hydroxy-15,15-dimethyl-8-(4-((2-(4-(oxetan-3-yl)piperazin-1-yl)pyrimidin-5-yl)ethynyl)benzyl)-3,6,13-trioxo-5-(1,1,1-trifluoro-2-methylpropan-2-yl)-2-oxa-4,7,11,12-tetraazahexadecan-14-yl)carbamate], for which the “3H Human Predicted Cl.” value in data set [1] (setting [7]) is given as 0.08. Also, in data set [2] (dog liver microsomes 0.5 mg/mL, 1 uM compound, NADPH), the “Dog. Pred. Cl.” value is reported as 1.63 L/H/kg. Besides, the “Human Pred Cl.” value in data set [2] (setting [8]) is below 0.11 L/H/kg. Moreover, in data set [2] (rat liver microsomes 0.5 mg/mL, 1 uM compound, NADPH), the “Rat. Pred. Cl.” value is listed as below 0.18 L/H/kg. In data set [3] (setting [6]), the EC50 turned out to be 4.57 nM.

On to `COC(=O)N[C@H](C(=O)N[C@@H](Cc1ccc(C#Cc2cnc(N3CC4CCC(C3)N4C3COC3)c(C)c2)cc1)[C@@H](O)CN(Cc1c(F)cc(-c2cnn(C(F)F)c2)cc1F)NC(=O)[C@@H](NC(=O)OC)C(C)(C)C(F)(F)F)C(C)(C)C(F)(F)F` [Example 153, Methyl ((5S,8S,9S,14S)-11-(4-(1-(difluoromethyl)-1H-pyrazol-4-yl)-2,6-difluorobenzyl)-16,16,16-trifluoro-9-hydroxy-15,15-dimethyl-8-(4-((5-methyl-6-(8-(oxetan-3-yl)-3,8-diazabicyclo[3.2.1]octan-3-yl)pyridin-3-yl)ethynyl)benzyl)-3,6,13-trioxo-5-(1,1,1-trifluoro-2-methylpropan-2-yl)-2-oxa-4,7,11,12-tetraazahexadecan-14-yl)carbamate], for which, in data set [1] (human, 1 uM), the “3H Human Predicted Cl.” value is 0.43.

For `COC(=O)N[C@H](C(=O)NN(Cc1c(F)cc(-c2ccn(C(F)F)n2)cc1F)C[C@H](O)[C@H](Cc1ccc(C#Cc2cnc(N3CC4CCC(C3)N4C3COC3)nc2)cc1)NC(=O)[C@@H](NC(=O)C1CC1)C(C)(C)C(F)(F)F)C(C)(C)C(F)(F)F` [Example 221, Methyl ((2S)-1-(2-((2S,3S)-3-((S)-2-(cyclopropanecarboxamido)-4,4,4-trifluoro-3,3-dimethylbutanamido)-2-hydroxy-4-(4-((2-(8-(oxetan-3-yl)-3,8-diazabicyclo[3.2.1]octan-3-yl)pyrimidin-5-yl)ethynyl)phenyl)butyl)-2-(4-(1-(difluoromethyl)-1H-pyrazol-3-yl)-2,6-difluorobenzyl)hydrazinyl)-4,4,4-trifluoro-3,3-dimethyl-1-oxobutan-2-yl)carbamate], the “Dog. Pred. Cl.” value in data set [2] (dog, microsomes) was 0.14 L/H/kg. Further, the “Human Pred Cl.” value in data set [2] (human, microsomes) is reported as below 0.11 L/H/kg. In data set [2] (rat, microsomes), the “Rat. Pred. Cl.” value is 0.28 L/H/kg. The EC50 in data set [3] (setting [6]) came to 4.49 nM. Moreover, in the data set “in vivo [5]”, the Vd worked out at 4.41 L/kg, the “RAT PO F” value was determined as 19.9%, the “RAT IV CL” value worked out at 5.33 mL/min/kg and the “RAT IV T1/2” value was found to be 11.5 h.
